Experimental data as given in publication PMC12583498, “Distinct filament morphology and membrane tethering features of the dual FtsZ paralogs in Odinarchaeota” (The EMBO journal, 2025).

How the values were obtained:
OdinFtsZ1 [1] = target: T1, OdinFtsZ1 (Candidatus Odinarchaeum yellowstonii, UniProt A0AAF0ID74); assay: cryo-EM structure of filament; assay type: binding; details: […] GMPCPP, […] MgCl2, pH […], on ice; nucleotide pocket at subunit interface; map resolution […] A
T1 construct: full length (363 residues by primer name), synthetic gene, 6His-bdSUMO tag cleaved by Ulp protease, E. coli BL21(DE3); residues 34-332 modelled in cryo-EM
T1 sequence (A0AAF0ID74 1-360): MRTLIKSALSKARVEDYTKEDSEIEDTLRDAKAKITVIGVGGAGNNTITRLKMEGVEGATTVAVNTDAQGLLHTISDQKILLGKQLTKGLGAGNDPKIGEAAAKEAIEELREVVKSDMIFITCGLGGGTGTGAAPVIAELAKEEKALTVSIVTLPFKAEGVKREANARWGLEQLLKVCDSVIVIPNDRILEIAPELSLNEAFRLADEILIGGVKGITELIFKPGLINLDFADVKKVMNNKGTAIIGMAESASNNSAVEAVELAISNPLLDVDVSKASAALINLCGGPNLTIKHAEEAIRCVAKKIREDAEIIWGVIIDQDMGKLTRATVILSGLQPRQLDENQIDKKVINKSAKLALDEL

OdinFtsZ2 [2] = target: T2, OdinFtsZ2 (Candidatus Odinarchaeum yellowstonii, UniProt A0AAF0D3V8); assay: […] degree light scattering and TEM / cryo-EM of polymerization; assay type: biochemical; details: […] GTP, […] Mg2+, pH […] KCl, […] °C; nucleotide-dependent assembly
T2 construct: gene ftsZ; full length, synthetic gene, 6His-bdSUMO tag cleaved by Ulp protease, E. coli BL21(DE3); assembles into stacked rings
T2 sequence (A0AAF0D3V8 1-402): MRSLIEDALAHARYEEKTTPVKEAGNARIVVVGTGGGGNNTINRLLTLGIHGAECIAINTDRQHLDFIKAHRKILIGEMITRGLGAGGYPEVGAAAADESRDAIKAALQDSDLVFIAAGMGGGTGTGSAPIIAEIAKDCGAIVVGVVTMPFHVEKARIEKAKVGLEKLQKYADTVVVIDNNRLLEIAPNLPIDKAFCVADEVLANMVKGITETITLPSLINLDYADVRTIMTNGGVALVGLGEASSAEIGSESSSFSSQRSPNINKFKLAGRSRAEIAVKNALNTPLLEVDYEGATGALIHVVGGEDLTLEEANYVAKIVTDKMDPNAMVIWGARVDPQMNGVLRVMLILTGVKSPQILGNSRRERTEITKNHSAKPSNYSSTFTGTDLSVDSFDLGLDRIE

OdinFtsZ1 [3] = target: T1, OdinFtsZ1; assay: light scattering and sedimentation assay of polymerization; assay type: biochemical; details: […] GTP, […] Mg2+, pH […] KCl, […] °C
OdinFtsZ2 [4] = target: T2, OdinFtsZ2; assay: negative-stain TEM of polymerization; assay type: biochemical; details: […] nucleotide, […] MgCl2, pH […] KCl, […] °C
[5] = target: OdinSepF (Candidatus Odinarchaeum yellowstonii LCB_4); assay: SEC-MALS; Superdex 75 Increase 10/300 GL, HK50 buffer (50 mM HEPES pH 7.4, 50 mM KCl), room temperature, OdinSepF 2 mg/ml, 100 μl

Nc1nc2c(ncn2[C@@H]2O[C@H](COP(=O)(O)CP(=O)(O)OP(=O)(O)O)[C@@H](O)[C@H]2O)c(=O)[nH]1 [GMPCPP]
cryo-EM structure of filament (OdinFtsZ1 [1]): A non-protein density was detected within the nucleotide-binding pocket using Servalcat

Nc1nc2c(ncn2[C@@H]2O[C@H](COP(=O)(O)OP(=O)(O)OP(=O)(O)O)[C@@H](O)[C@H]2O)c(=O)[nH]1 [GTP]
90 degree light scattering and TEM / cryo-EM of polymerization (OdinFtsZ2 [2]): OdinFtsZ2 formed highly curved, stacked ring-like structures when provided with GTP or GTPγS
light scattering and sedimentation assay of polymerization (OdinFtsZ1 [3]): GTP addition significantly enhanced the amount of OdinFtsZ1 in the pellet fraction

Nc1nc2c(ncn2[C@@H]2O[C@H](COP(=O)(O)OP(=O)(O)OP(O)(O)=S)[C@@H](O)[C@H]2O)c(=O)[nH]1 [GTPγS]
negative-stain TEM of polymerization (OdinFtsZ2 [4]): OdinFtsZ2 formed highly curved, stacked ring-like structures when provided with GTP or GTPγS

OdinSepF (natural protein)
stoichiometry N [5]: 2
